Test results: the supplement of paper PMC10307832

Tests used:
Experiment in all cases: relative viability (nuclei count vs DMSO), 5 days (fraction); higher = more cells survive
Pictilisib + Lapatinib = compound: CS(=O)(=O)N1CCN(Cc2cc3nc(-c4cccc5[nH]ncc45)nc(N4CCOCC4)c3s2)CC1 [Pictilisib] + CS(=O)(=O)CCNCc1ccc(-c2ccc3ncnc(Nc4ccc(OCc5cccc(F)c5)c(Cl)c4)c3c2)o1 [Lapatinib] (partner 2 µM)
Method in brief: (§1)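 Relative viability divides the nuclei count in treated wells by that in vehicle wells. Lung cancer cell lines were seeded in 1536-well plates, dosed by pin tool the next day, and fixed and stained after 5 days in one step with final 0.05% Triton X-100, 1% formaldehyde and 1 ug/ml Hoechst. Dosing was a single drug or a fixed anchor-drug dose plus five library-drug doses (not always all listed) in √10 steps, and values are medians of duplicate plates imaged at 4×.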

MK-2206 + Alpelisib = compound: NC1(c2ccc(-c3nc4ccn5c(=O)[nH]nc5c4cc3-c3ccccc3)cc2)CCC1 [MK-2206] + Cc1nc(NC(=O)N2CCC[C@H]2C(N)=O)sc1-c1ccnc(C(C)(C)C(F)(F)F)c1 [Alpelisib] (partner 2 µM)
Method in brief: as §1

Pictilisib + OSI-027 = compound: CS(=O)(=O)N1CCN(Cc2cc3nc(-c4cccc5[nH]ncc45)nc(N4CCOCC4)c3s2)CC1 [Pictilisib] + COc1cccc2cc(-c3nc([C@H]4CC[C@H](C(=O)O)CC4)n4ncnc(N)c34)[nH]c12 [OSI-027] (partner 0.5 µM)
Method in brief: as §1

Pictilisib + Pemetrexed = compound: CS(=O)(=O)N1CCN(Cc2cc3nc(-c4cccc5[nH]ncc45)nc(N4CCOCC4)c3s2)CC1 [Pictilisib] + Nc1nc2[nH]cc(CCc3ccc(C(=O)N[C@@H](CCC(=O)O)C(=O)O)cc3)c2c(=O)[nH]1 [Pemetrexed] (partner 0.2 µM)
Method in brief: as §1

Pictilisib + Trametinib = compound: CS(=O)(=O)N1CCN(Cc2cc3nc(-c4cccc5[nH]ncc45)nc(N4CCOCC4)c3s2)CC1 [Pictilisib] + CC(=O)Nc1cccc(-n2c(=O)n(C3CC3)c(=O)c3c(Nc4ccc(I)cc4F)n(C)c(=O)c(C)c32)c1 [Trametinib] (partner 0.02 µM)
Method in brief: as §1

Q: UMC-11 was tested. Which relative viability (Pictilisib + Lapatinib; first compound 0.02 µM) did it give?
A: Its relative viability is 1.09.

Q: What about the relative viability (Pictilisib + Lapatinib; first compound 0.06325 µM) of the same cell line?
A: Its relative viability is 1.21.

Q: And the relative viability (Pictilisib + Lapatinib; first compound 0.6325 µM)?
A: The relative viability was 1.03.

Q: What about the relative viability (Pictilisib + Lapatinib; first compound 2 µM) of the same cell line?
A: Its relative viability is 0.887.

Q: And the relative viability (MK-2206 + Alpelisib; first compound 0.01 µM)?
A: The relative viability was 1.03.

Q: What about the relative viability (MK-2206 + Alpelisib; first compound 0.03162 µM) of the same cell line?
A: The relative viability was 0.908.

Q: What about the relative viability (MK-2206 + Alpelisib; first compound 0.3162 µM) of the same cell line?
A: The relative viability was 1.1.

Q: What about the relative viability (MK-2206 + Alpelisib; first compound 1 µM) of the same cell line?
A: Its relative viability is 0.994.

Q: And the relative viability (Pictilisib + OSI-027; first compound 0.02 µM)?
A: Its relative viability is 0.538.

Q: What about the relative viability (Pictilisib + OSI-027; first compound 0.06325 µM) of the same cell line?
A: The relative viability was 0.526.

Q: And the relative viability (Pictilisib + OSI-027; first compound 0.6325 µM)?
A: The relative viability was 0.48.

Q: And the relative viability (Pictilisib + OSI-027; first compound 2 µM)?
A: The relative viability was 0.383.

Q: And the relative viability (Pictilisib + Pemetrexed; first compound 0.02 µM)?
A: The relative viability was 0.784.

Q: And the relative viability (Pictilisib + Pemetrexed; first compound 0.06325 µM)?
A: The relative viability was 0.787.

Q: And the relative viability (Pictilisib + Pemetrexed; first compound 0.6325 µM)?
A: The relative viability was 0.737.

Q: And the relative viability (Pictilisib + Pemetrexed; first compound 2 µM)?
A: Its relative viability is 0.535.

Q: And the relative viability (Pictilisib + Trametinib; first compound 0.02 µM)?
A: The relative viability was 0.671.

Q: And the relative viability (Pictilisib + Trametinib; first compound 0.06325 µM)?
A: The relative viability was 0.872.

Q: And the relative viability (Pictilisib + Trametinib; first compound 0.6325 µM)?
A: The relative viability was 0.735.

Q: What about the relative viability (Pictilisib + Trametinib; first compound 2 µM) of the same cell line?
A: The relative viability was 0.674.
